Laboratory results reported in patent US20210337817A1, “COMPOUNDS AND FORMULATIONS FOR PROTECTIVE COATINGS” (Apeel Technology, Inc., priority 2018, published 2021).
“Also recorded” adds a separate entry of the source.

What was measured:
[1] = Contact angle on paraffin wax, direct or primed surface; type: physicochemical; settings: paraffin wax primed with CA-1G 3 mg/mL in water and dried, then pure water drops
Procedure: For bar 1601, the solvent was pure water. […] The mixture corresponding to bar 1603 was the same as that of bar 1602 but also included 3 mg/mL of CA-1G. For bar 1604, a mixture of CA-1G at a concentration of 3 mg/mL in water was first deposited on the surface of the paraffin wax and then allowed to dry in order to prime the surface. Afterward, the contact angle of water on the primed surface was determined. For bar 1605, a mixture of CA-1G at a concentration of 3 mg/mL in water was first deposited on the surface of the paraffin wax and then allowed to dry in order to prime the surface. Afterward, the contact angle of a mixture of SA-1G and SA-Na at a mass ratio of 95:5 dispersed in water at a concentration of 45 mg/mL on the primed surface was determined.

[2] = tested on: finger limes; test: Average daily mass loss rate of coated finger limes; settings: coating agent 10 mg/mL in ethanol, 23-27° C., humidity 40-55%, untreated 5.3%
From the text: As used herein, the “mass loss rate” refers to the rate at which the product loses mass (e.g. by releasing water and other volatile compounds). The mass loss rate is typically expressed as a percentage of the original mass per unit time (e.g. percent per day).
FIG. 1 is a graph showing average daily mass loss rates for finger limes coated with various mixtures of PA-2G and PA-1G measured over the course of several days. Each bar in the graph represents average daily mass loss rates for a group of 24 finger limes. The finger limes corresponding to bar 102 were untreated. The finger limes corresponding to bar 104 were coated with a coating agent that was substantially pure PA-1G. The finger limes corresponding to bar 106 were coated with a coating agent that was about 75% PA-1G and 25% PA-2G by mass. The finger limes corresponding to bar 108 were coated with a coating agent that was about 50% PA-1G and 50% PA-2G by mass. The finger limes corresponding to bar 110 were coated with a coating agent that was about 25% PA-1G and 75% PA-2G by mass. The finger limes corresponding to bar 112 were coated with a coating agent that was substantially pure PA-2G. The coating agents were each dissolved in ethanol at a concentration of 10 mg/mL to form solutions, and the solutions were applied to the surface of the corresponding finger limes to form the coatings. […]

[3] = tested on: avocados; test: Skin damage of treated avocados (photograph); settings: 5 mg/mL in water, no long chain fatty acid esters/salts (FIG. 5)
From the text: Medium chain fatty acids (e.g., having a carbon chain length in a range of 7 to 13) and/or salts or esters thereof can also be used as coating agents to form coatings over produce or other plant matter or agricultural products using the methods described above.
[…] […] Prior to treatment, the avocado skin was virtually entirely green (not shown).

Row | Structure (SMILES) | average daily mass loss rate [2] | other results
1 | CCCCCCCCCC(=O)OCC(O)CO (stereo not shown) [CA-1G, 2,3-dihydroxypropan-1-yl decanoate] | – | average contact angle of water on primed surface [1]: 24 °
2 | CCCCCCCCCCCCCCCC(=O)OCC(O)CO (stereo not shown) [PA-1G, 2,3-dihydroxypropan-1-yl palmitate] | 4.3 % per day | –
3 | CCCCCCCCCCCCCCCC(=O)OC(CO)CO [PA-2G, 1,3-dihydroxypropan-2-yl palmitate] | 3.7 % per day | –
4 | CCCCCCCCCCC(=O)OCC(O)CO (stereo not shown) [UA-1G, 2,3-dihydroxypropan-1-yl undecanoate] | – | skin damage of avocados after treatment [3]: high density of black discolored regions; also recorded: extensive skin damage
